# Assay results published in patent US9969699B2, “Cancer cell growth inhibitor, anticancer agent, and method for screening same, as well as novel compound” (Microbial Chemistry Research Foundation, priority 2014, dated 2018).
# Assay: Acute toxicity test, intraperitoneal administration
# Format: in vivo, ICR mice
# Conditions: intraperitoneally once; for Organ weight Heart / Organ weight Kidney (Left) / Organ weight Kidney (Right) / Organ weight Liver / Organ weight Lung / Organ weight Spleen / Organ weight Thymus: two weeks after
# Source text: Two-weeks after the compounds represented by the Structural Formula (1) at the above concentrations were intraperitoneally administered, the mice were dissected and organs thereof were weighed.
# Two-weeks after the compounds represented by the Structural Formula (8) at the above concentrations were intraperitoneally administered, the mice were dissected and organs thereof were weighed.
smiles,measurement,setting,value
"Nc1ccc(Br)cc1-c1nc2ccccc2[nH]c1=O [Structural Formula (1), 3-(2-amino-5-bromophenyl)-2(1H)-quinoxalinone]",Organ weight Heart,0.098 mg/kg/0.2 mL,115.0 mg
same,Organ weight Kidney (Left),0.098 mg/kg/0.2 mL,139.0 mg
same,Organ weight Kidney (Right),0.098 mg/kg/0.2 mL,147.0 mg
same,Organ weight Liver,0.098 mg/kg/0.2 mL,1047.0 mg
same,Organ weight Lung,0.098 mg/kg/0.2 mL,160.0 mg
same,Organ weight Spleen,0.098 mg/kg/0.2 mL,78.0 mg
same,Organ weight Thymus,0.098 mg/kg/0.2 mL,67.0 mg
same,Organ weight Heart,0.195 mg/kg/0.2 mL,125.0 mg
same,Organ weight Kidney (Left),0.195 mg/kg/0.2 mL,175.0 mg
same,Organ weight Kidney (Right),0.195 mg/kg/0.2 mL,184.0 mg
same,Organ weight Liver,0.195 mg/kg/0.2 mL,1590.0 mg
same,Organ weight Lung,0.195 mg/kg/0.2 mL,169.0 mg
same,Organ weight Spleen,0.195 mg/kg/0.2 mL,121.0 mg
same,Organ weight Thymus,0.195 mg/kg/0.2 mL,83.0 mg
same,Organ weight Heart,0.39 mg/kg/0.2 mL,106.0 mg
same,Organ weight Kidney (Left),0.39 mg/kg/0.2 mL,157.0 mg
same,Organ weight Kidney (Right),0.39 mg/kg/0.2 mL,168.0 mg
same,Organ weight Liver,0.39 mg/kg/0.2 mL,1350.0 mg
same,Organ weight Lung,0.39 mg/kg/0.2 mL,160.0 mg
same,Organ weight Spleen,0.39 mg/kg/0.2 mL,95.0 mg
same,Organ weight Thymus,0.39 mg/kg/0.2 mL,74.0 mg
same,Organ weight Heart,0.78 mg/kg/0.2 mL,115.0 mg
same,Organ weight Kidney (Left),0.78 mg/kg/0.2 mL,163.0 mg
same,Organ weight Kidney (Right),0.78 mg/kg/0.2 mL,159.0 mg
same,Organ weight Liver,0.78 mg/kg/0.2 mL,1263.0 mg
same,Organ weight Lung,0.78 mg/kg/0.2 mL,167.0 mg
same,Organ weight Spleen,0.78 mg/kg/0.2 mL,116.0 mg
same,Organ weight Thymus,0.78 mg/kg/0.2 mL,78.0 mg
same,Organ weight Heart,1.56 mg/kg/0.2 mL,134.0 mg
same,Organ weight Kidney (Left),1.56 mg/kg/0.2 mL,162.0 mg
same,Organ weight Kidney (Right),1.56 mg/kg/0.2 mL,169.0 mg
same,Organ weight Liver,1.56 mg/kg/0.2 mL,1472.0 mg
same,Organ weight Lung,1.56 mg/kg/0.2 mL,178.0 mg
same,Organ weight Spleen,1.56 mg/kg/0.2 mL,103.0 mg
same,Organ weight Thymus,1.56 mg/kg/0.2 mL,85.0 mg
same,Organ weight Heart,3.125 mg/kg/0.2 mL,135.0 mg
same,Organ weight Kidney (Left),3.125 mg/kg/0.2 mL,193.0 mg
same,Organ weight Kidney (Right),3.125 mg/kg/0.2 mL,191.0 mg
same,Organ weight Liver,3.125 mg/kg/0.2 mL,1558.0 mg
same,Organ weight Lung,3.125 mg/kg/0.2 mL,179.0 mg
same,Organ weight Spleen,3.125 mg/kg/0.2 mL,150.0 mg
same,Organ weight Thymus,3.125 mg/kg/0.2 mL,99.0 mg
same,Organ weight Heart,6.25 mg/kg/0.2 mL,114.0 mg
same,Organ weight Kidney (Left),6.25 mg/kg/0.2 mL,167.0 mg
same,Organ weight Kidney (Right),6.25 mg/kg/0.2 mL,163.0 mg
same,Organ weight Liver,6.25 mg/kg/0.2 mL,1412.0 mg
same,Organ weight Lung,6.25 mg/kg/0.2 mL,178.0 mg
same,Organ weight Spleen,6.25 mg/kg/0.2 mL,104.0 mg
same,Organ weight Thymus,6.25 mg/kg/0.2 mL,68.0 mg
same,Organ weight Heart,12.5 mg/kg/0.2 mL,107.0 mg
same,Organ weight Kidney (Left),12.5 mg/kg/0.2 mL,161.0 mg
same,Organ weight Kidney (Right),12.5 mg/kg/0.2 mL,163.0 mg
same,Organ weight Liver,12.5 mg/kg/0.2 mL,1120.0 mg
same,Organ weight Lung,12.5 mg/kg/0.2 mL,159.0 mg
same,Organ weight Spleen,12.5 mg/kg/0.2 mL,98.0 mg
same,Organ weight Thymus,12.5 mg/kg/0.2 mL,63.0 mg
same,Organ weight Heart,25 mg/kg/0.2 mL,111.0 mg
same,Organ weight Kidney (Left),25 mg/kg/0.2 mL,157.0 mg
same,Organ weight Kidney (Right),25 mg/kg/0.2 mL,170.0 mg
same,Organ weight Liver,25 mg/kg/0.2 mL,1316.0 mg
same,Organ weight Lung,25 mg/kg/0.2 mL,147.0 mg
same,Organ weight Spleen,25 mg/kg/0.2 mL,98.0 mg
same,Organ weight Thymus,25 mg/kg/0.2 mL,92.0 mg
same,Organ weight Heart,50 mg/kg/0.4 mL,120.0 mg
same,Organ weight Kidney (Left),50 mg/kg/0.4 mL,166.0 mg
same,Organ weight Kidney (Right),50 mg/kg/0.4 mL,173.0 mg
same,Organ weight Liver,50 mg/kg/0.4 mL,1747.0 mg
same,Organ weight Lung,50 mg/kg/0.4 mL,168.0 mg
same,Organ weight Spleen,50 mg/kg/0.4 mL,132.0 mg
same,Organ weight Thymus,50 mg/kg/0.4 mL,69.0 mg
same,toxicity,"0.098 to 50 mg/kg, observed 2 weeks",no significant toxicity
